Assay results as given in US9795585B2, “Methods of using L-butylphthalide for the prevention and treatment of cerebral ischemia disease” (priority 2004, dated 2017).
Where “and” joins values, the source holds several entries; their conditions need not be identical. Identical values can stand only once.

Assays:
[1] = system: cerebral injury-induced cerebral ischemia in rats; assay: Neural symptoms induced by cerebral injury in rats; assay type: in vivo, male Wistar rats; conditions: 50 mg/kg oral 5 minutes after cerebral injury; scored after 24 hours; vs vehicle control
Procedure: Experimental Animals: male Wistar rats
Experimental Methods: Cerebral injury in rats was caused by allowing a cone-shaped metal object weighing 220 g to freely fall from a position of 30 cm height and to strike the skull cap behind the left coronal suture. dl-, d-, and l-NBP (50 mg/kg) and the vehicle (control group) were orally administered after 5 minutes, and the behavioral changes were scored after 24 hours.

[2] = system: cerebral edema induced by cerebral artery ligation in rats; assay: Cerebral edema induced by ligation of right middle cerebral artery; assay type: in vivo, male Wistar rats
Procedure: Experimental Animals: the same as Example 1. Experimental Equipments: Oxygen analyzer. Experimental Methods: Cerebral edema was induced by the ligation of right middle cerebral artery of rats. After 15 minutes, dl-, d-, and l-NBP (40 and 80 mg/kg) were orally administered. The rats were sacrificed after 24 hours. The forebrain was removed, and the cerebral hemispheres on the left and right side were weighed. Dry weight was obtained by baking for 24 hours under 100° C. The weight of water in the brain tissue was thus calculated by subtracting of dry weight from wet weight. Then, the tissues was nitrified for 4 hours, and pH was adjusted by using HCl. Next, the ion selective electrode was connected onto the oxygen analyzer, and the concentrations of Na^+ and K^+ in the brain tissue were measured.

[3] = system: cerebral apoplexy in spontaneous hypertension rats; assay: Cerebral apoplexy in salt-loaded spontaneous hypertensive rats; assay type: in vivo
Procedure: Experimental Animals: spontaneous hypertensive rats of 6 weeks old. Experimental Methods: Spontaneous hypertensive rats of 6 weeks old were divided into 8 groups with 10 rats per group. 0.8 to 0.9 g per day of common salt was administered starting from week 6. […] The scores of neurological deficit and the time of death were recorded.

normal rats = assay type: in vivo, Male wistar rats; conditions: 15 and 30 mg/kg oral; for cerebral blood flow rate in normal rats: 30 minutes after administration
Procedure: (§1) Experimental Animals: Male wistar rats.
(§2) Experimental Equipments: SXP operating microscope, 62TZ-V model high frequency electrotome, solid positioner, Diamond Electro-Tech chemical microsensor 1231, two channel physiological parameter recorder.
(§3) Experimental Methods: • (1) dl-, d-, and l-NBP (15 and 30 mg/kg) and the vehicle were orally administered to the normal rats, and the changes of cerebral blood flow at different time after the administration were measured. • (2) ligation of cerebral artery was conducted on rats according to the method of Tamura. Oral administration was performed at 10 min after the operation. The rats were divided into 9 groups, which were normal group, pseudo-operation group, vehicle control group, and groups of dl-, d-, and l-NBP (15 and 30 mg/kg).

[4] = system: ischemic region (corpus striatum) of rats with blocked cerebral artery; assay: Focal cerebral blood flow after ligation of cerebral artery (method of Tamura); assay type: in vivo, Male wistar rats
Procedure: as §1, §2, §3

[5] = system: permanent cerebral ischemic rats; assay: Behavioral disorder and cerebral infarct area in permanent cerebral ischemic rats (FeCl3 on middle cerebral artery); assay type: in vivo, Wistar rats; conditions: for reduction of cerebral infarct area / neurological deficit scores (effect in words) / ED40 (cerebral infarct area): vs model control group; for decrease of neurological deficit scores / ED30 (neurological deficit scores): i.v., 24 hours after administration; for neurological deficit scores (effect in words): intravenous injection
Procedure: Experimental Animal: The same as Example 1. Experimental Equipments: COOLPIX955 digital camera, 722 grating spectroscope, XHF-1 high-speed disperser, YKH-II liquid high-speed mixer, WZ-50C2 micro infusion pump. Experimental Methods: Wistar rats were anesthetized by intraperitoneally injecting 12% chloral hydrate in 350 mg/kg, and fixed in lateral decubitus position. The skin at the midpoint on the line from exterior auditory canal to canthus was cut. The muscle was separated layer by layer to expose zygomatic arch and the squamous part of temporal bone. The zygomatic arch was scissored and then placed under an operating microscope. A window of 2 mm diameter was drilled by using a dentistry drill at a position of 2 mm under the anterior joint between zygomatic arch and the squamous part of temporal bone, so as to expose the middle cerebral artery. A little piece of filter paper was applied onto the middle artery, and 10 μl of 50% FeCl3 aqueous solution was dripped onto the filter paper. The filter paper was removed after 30 min, and washed with physiological brine. Two to three drops of penicillin (1.6×10^5 U/mL) were added so as to prevent infection of the cut. Then the cut was sutured layer by layer.

[6] = system: cerebral ischemia-reperfusion rats; assay: Behavioral disorder and cerebral infarct area in cerebral ischemia-reperfusion rats (MCAO by nylon suture, 1.5 h); assay type: in vivo, male Wistar rats; conditions: for neurological deficit scores (effect in words) / potency on neurological deficit scores compared among l, dl and d-NBP: 24 hours after intravenous injection; for reduction of cerebral infarct area / ED50 (cerebral infarct area): i.v., vs model control group; for cerebral infarct area (effect in words): intravenous administration, effect increases with dose
Text: Experimental Animal: The same as Example 1
Experimental Equipments: The same as Example 7
Experimental Methods: The rats were anesthetized, and fixed in lateral decubitus position. Under the operating microscope, a midline neck skin incision was made to expose the left common cartotid artery. The surrounding nerves and fascia from the bifurcation of common carotid artery to the vascular of basis cranii were removed.
The internal carotid artery was then separated and carefully separated free from vagus nerve. Pterygopalatine artery was ligated at the root of the internal carotid artery. A 6# needle for injection containing 3# nylon suture (diameter of 0.285 mm) was punctured into the free end of the external carotid artery, advancing the nylon suture into the blood vascular. The needle was carefully withdrawn, and the nylon suture was guided into the internal carotid artery from the distal end of the external carotid artery up till to Willis ring, so as to effectively block the middle cerebral artery.
Depending on the body weight, the distance from the inserted nylon suture to the bifurcation of common carotid artery was 18 to 20 mm. The free end of the external carotid artery and the nylon suture therein were ligated together, in order to prevent bleeding. The muscle and the skin were then sutured layer by layer, and penicillin was dropped to prevent infection. To effectively block the middle cerebral artery, the tip of the nylon suture was made round by burning with the flame, and coated with 0.1% of poly-L-lysine. The nylon suture was baked in a 60° C. oven for 1 hour.
Due to the ability of poly-L-lysine to binding the cell and the protein to the plastic surface, and thus allow the negative charged nylon suture changing into a positive charged one and attract the anion ionic part of the endothelial cell, the nylon suture was closely bond to the endothelial surface, so as to prevent the leakage of the blood from the surrounding of the suture. Only the internal carotoid artery was separated from the animals of pseudo-operation group.
At 1.5 hours after the initiation of MCAO, the nylon suture within the lumen of the internal carotoid artery was carefully withdrawn, and the internal carotoid artery was allowed to reperfusion. The rats were then placed back into the cage.

[7] = 40 and 80 mg/kg oral 15 minutes after ligation, sacrificed after 24 hours
[8] = 25 and 50 mg/kg/d oral until 3 weeks after apoplexy, dose-dependent

Row | Structure (SMILES) | neural symptoms (behavioral changes scored) [1] | content of K+ in the brain [2, 7] | content of Na+ in the brain [2, 7] | content of water in the brain [2, 7] | cerebral blood flow rate in normal rats (normal rats) | reduction of cerebral infarct area ([5]; first of three doses) | decrease of neurological deficit scores ([5]; high dose) | ED30 (neurological deficit scores) [5] | neurological deficit scores (effect in words) [5] | decrease of neurological deficit scores ([5]; low dose) | decrease of neurological deficit scores ([5]; moderate dose) | reduction of cerebral infarct area ([5]; second of three doses) | reduction of cerebral infarct area ([5]; third of three doses) | ED40 (cerebral infarct area) [5] | neurological deficit scores (effect in words) [6] | potency on neurological deficit scores compared among l, dl and d-NBP [6] | reduction of cerebral infarct area ([6]; first of three doses) | ED50 (cerebral infarct area) [6] | cerebral infarct area (effect in words) [6] | reduction of cerebral infarct area ([6]; second of three doses) | other results
1 | CCCCC1OC(=O)c2ccccc21 (racemic) [dl-NBP, butylphthalide] | no significant effect | no significant effect | no significant effect | no significant effect | no such effects | 29.2% | 37.5% | 7.2 mg/kg | improvement | 15.6% | 21.9% | 35.2% | 44.4% | 7.1 mg/kg | improvement | no significant difference | 37.9% and 34.8% | 5.5 mg/kg and 5.7 mg/kg | significantly reduce | 48.5% and 46.5% | content of Na+ in the brain ([2]; 80 mg/kg oral, decrease seen): no statistical significance; content of water in the brain ([2]; 80 mg/kg oral, decrease seen): no statistical significance; content of K+ in the brain ([2]; 80 mg/kg oral, increase seen): no statistical significance; preventive and therapeutic effect on cerebral apoplexy (overall) ([3]; 25 and 50 mg/kg/d oral): merely had such effect at relatively high doses; focal blood flow in the corpus striatum on the side of the blocked cerebral artery ([4]; 30 mg/kg oral 10 min after operation, similar increase seen): no statistical significance; cerebral infarct area (effect in words) ([5]; 2.5 mg/kg, tendency of reducing): not significant; reduction of cerebral infarct area ([6]; third of three doses): 59.2% and 60.9%
2 | CCCC[C@@H]1OC(=O)c2ccccc21 [l-NBP, L-butylphthalide] | significantly reduced | increase | significantly decrease | significantly decrease | significantly increased | 38.4% | 35.9% | 6.2 mg/kg | improvement | 17.2% | 29.7% | 41.9% | 50.7% | 3.3 mg/kg | improvement | no significant difference | 40.8% | 3.8 mg/kg | significantly reduce | 57.0% | time of the occurrence of cerebral apoplexy ([3]; 25 and 50 mg/kg/d oral from week 8, vs vehicle control): significantly delay; neurological deficit after cerebral apoplexy [3, 8]: reduce; viability after the occurrence of cerebral apoplexy [3, 8]: significantly increase; time after administration till which cerebral blood flow rate was maintained at a relative high level (normal rats; normal rats): 50 min; focal blood flow in the corpus striatum on the side of the blocked cerebral artery ([4]; 15 and 30 mg/kg oral 10 min after operation, vs vehicle control, dose-dependent): significantly increase; cerebral infarct area (effect in words) ([5]; 5 and 10 mg/kg, effect increased with dose): significantly reduce; effect on cerebral infarct area relative to d-NBP ([5]; as calculated by converting into ED50): about 3.1 times; cerebral infarct area (effect in words) ([5]; dose not given): significantly reduce; effect on cerebral infarct area relative to d-NBP ([6]; as calculated by ED50): about 1.5 times; reduction of cerebral infarct area ([6]; third of three doses): 68.5%
